Measured values: PubChem BioAssay AID1963864 (Molecular Pharmacology Branch, DTP, NCI, 2024)

Test system: KRAS PDC multicell spheroid viability
Assay: Anticancer human tumor 521955-158-R6-J3-PDC patient-derived pancreatic carcinoma cell line growth inhibition [KRAS2]
Details: for IC50: curve of first compound; for viability, T/C: stronger effect = lower value
Method in brief: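 KRAS-mutant tumor cells were grown as spheroids with HUVEC endothelial cells and human MSCs as stroma. Targeted agents were tested alone and with KRAS pathway inhibitors. Doses started at or near clinical Cmax, or 10 microM, descending half-log.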

[1] = second compound 0.1 µM, first compound 0.0316 µM
[2] = second compound 0.1 µM, first compound 0.1 µM
[3] = second compound 0.1 µM, first compound 0.316 µM
[4] = second compound 0.1 µM, first compound 1 µM
[5] = second compound 0.1 µM, first compound 3.16 µM
[6] = second compound 0.1 µM, first compound 10 µM
[7] = second compound 0.316 µM, first compound 0.0316 µM
[8] = second compound 0.316 µM, first compound 0.1 µM
[9] = second compound 0.316 µM, first compound 0.316 µM
[10] = second compound 0.316 µM, first compound 1 µM
[11] = second compound 0.316 µM, first compound 3.16 µM
[12] = second compound 0.316 µM, first compound 10 µM
[13] = second compound 1 µM, first compound 0.0316 µM
[14] = second compound 1 µM, first compound 0.1 µM
[15] = second compound 1 µM, first compound 0.316 µM
[16] = second compound 1 µM, first compound 1 µM
[17] = second compound 1 µM, first compound 3.16 µM
[18] = second compound 1 µM, first compound 10 µM
[19] = second compound 3.16 µM, first compound 0.0316 µM
[20] = second compound 3.16 µM, first compound 0.1 µM
[21] = second compound 3.16 µM, first compound 0.316 µM
[22] = second compound 3.16 µM, first compound 1 µM
[23] = second compound 3.16 µM, first compound 3.16 µM
[24] = second compound 3.16 µM, first compound 10 µM
[25] = second compound 10 µM, first compound 0.0316 µM
[26] = second compound 10 µM, first compound 0.1 µM
[27] = second compound 10 µM, first compound 0.316 µM
[28] = second compound 10 µM, first compound 1 µM
[29] = second compound 10 µM, first compound 3.16 µM
[30] = second compound 10 µM, first compound 10 µM
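Further: drug exposure lasted seven days.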
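Wherever viability, T/C is given: 100% = DMSO vehicle wells and lower means fewer viable cells.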

Structure (SMILES)	IC50 (second compound 0.1 µM) [µM]	IC50 (second compound 0.316 µM) [µM]	IC50 (second compound 1 µM) [µM]	IC50 (second compound 3.16 µM) [µM]	IC50 (second compound 10 µM) [µM]	viability, T/C [1] [%]	viability, T/C [2] [%]	viability, T/C [3] [%]	viability, T/C [4] [%]	viability, T/C [5] [%]	viability, T/C [6] [%]	viability, T/C [7] [%]	viability, T/C [8] [%]	viability, T/C [9] [%]	viability, T/C [13] [%]	viability, T/C [14] [%]	viability, T/C [19] [%]	viability, T/C [20] [%]	viability, T/C [25] [%]	viability, T/C [26] [%]	also measured
CCNC(=O)CC1N=C(c2ccc(Cl)cc2)c2cc(OC)ccc2-n2c(C)nnc21 (stereo not given) + CC1OCC2(CCN(c3cnc(Sc4ccnc(N)c4Cl)c(N)n3)CC2)C1N	> 10	> 10	> 10	> 10	1.07	84.1	83.5	58.9	73.5	62.6	73.3	102	90.3	69.3	99.5	86.6	106	103	115	105	viability, T/C [10]: 68.1%; viability, T/C [11]: 56.4%; viability, T/C [12]: 62.2%; viability, T/C [15]: 70.8%; viability, T/C [16]: 65.9%; viability, T/C [17]: 56.4%; viability, T/C [18]: 59.8%; viability, T/C [21]: 77%; viability, T/C [22]: 62.6%; viability, T/C [23]: 58%; viability, T/C [24]: 53.3%; viability, T/C [27]: 76.4%; viability, T/C [28]: 50%; viability, T/C [29]: 43.2%; viability, T/C [30]: 43%
Cn1nccc1Nc1nccc(-c2cc3c(s2)C(C)(C)N(CCN2CCOCC2)C3=O)n1 + CC1OCC2(CCN(c3cnc(Sc4ccnc(N)c4Cl)c(N)n3)CC2)C1N	> 10	> 10	7.94	2.83	1.51	89.8	93.9	94.2	81.2	68.4	62.6	93.9	95.5	90.3	88.4	98	82.1	88.4	93.2	86.6	viability, T/C [10]: 67.4%; viability, T/C [11]: 63.7%; viability, T/C [12]: 57.1%; viability, T/C [15]: 82.2%; viability, T/C [16]: 72.2%; viability, T/C [17]: 53.7%; viability, T/C [18]: 49.2%; viability, T/C [21]: 72.7%; viability, T/C [22]: 59.9%; viability, T/C [23]: 47.8%; viability, T/C [24]: 47.7%; viability, T/C [27]: 71.9%; viability, T/C [28]: 53.6%; viability, T/C [29]: 43.4%; viability, T/C [30]: 39.5%
Cn1ncnc1[C@H]1c2n[nH]c(=O)c3cc(F)cc(c23)N[C@@H]1c1ccc(F)cc1 + CC1OCC2(CCN(c3cnc(Sc4ccnc(N)c4Cl)c(N)n3)CC2)C1N	> 0.1	> 0.1	> 0.1	> 0.1	> 0.1	79.5	77.2	–	–	–	–	79.2	78.2	–	82.9	86.4	96.2	82	100	97.9	viability, T/C (second compound 0.1 µM, first compound 0.000316 µM): 86.7%; viability, T/C (second compound 0.1 µM, first compound 0.001 µM): 91%; viability, T/C (second compound 0.1 µM, first compound 0.00316 µM): 78.5%; viability, T/C (second compound 0.1 µM, first compound 0.01 µM): 83.2%; viability, T/C (second compound 0.316 µM, first compound 0.000316 µM): 93.3%; viability, T/C (second compound 0.316 µM, first compound 0.001 µM): 76.7%; viability, T/C (second compound 0.316 µM, first compound 0.00316 µM): 81.5%; viability, T/C (second compound 0.316 µM, first compound 0.01 µM): 80.2%; viability, T/C (second compound 1 µM, first compound 0.000316 µM): 83.6%; viability, T/C (second compound 1 µM, first compound 0.001 µM): 82%; viability, T/C (second compound 1 µM, first compound 0.00316 µM): 79%; viability, T/C (second compound 1 µM, first compound 0.01 µM): 78%; viability, T/C (second compound 3.16 µM, first compound 0.000316 µM): 99.8%; viability, T/C (second compound 3.16 µM, first compound 0.001 µM): 95.6%; viability, T/C (second compound 3.16 µM, first compound 0.00316 µM): 96.3%; viability, T/C (second compound 3.16 µM, first compound 0.01 µM): 106%; viability, T/C (second compound 10 µM, first compound 0.000316 µM): 105%; viability, T/C (second compound 10 µM, first compound 0.001 µM): 103%; viability, T/C (second compound 10 µM, first compound 0.00316 µM): 95%; viability, T/C (second compound 10 µM, first compound 0.01 µM): 103%
